In ChEMBL document CHEMBL5608113, “Targeting of CAF-induced therapy resistance in CRC organoid-stroma co-cultures” (2024):

tested on: Colon cancer organoid; test: Targeting of F14 CAF-induced therapy resistance in O23 CRC organoid-stroma co-culture. Cell viability is reported with Gefitinib.; assay type: functional, Homo sapiens; conditions: Homo sapiens, Concentration 10 uM; read-out: Cell Viability

Compared with `COc1cc(Nc2ncc3c(n2)-c2ccc(Cl)cc2C(c2c(F)cccc2OC)=NC3)ccc1C(=O)O` [ALISERTIB], `COc1cc(Nc2ccnc3ccc(Br)cc23)cc(OC)c1OC` is lower in viability at 10 µM: 13.7% for the first, 6.32% for the second.

First: CCn1c(-c2nc3cc(C(=O)N4CCCC(N)C4)ccc3n2C)cc2ccccc21 (stereo not given)
Second: CN(C)C(=O)/C(C#N)=C/c1ccc(-c2nc3cnc4[nH]ccc4c3n2C2CCCCC2)o1
The viability at 10 µM of the first is higher: 83.2% for the first, 56.7% for the second.

First: O=C1[C@H](Cc2ccc(O)cc2)N2C(=O)CCN(C(=O)NCc3ccccc3)[C@H]2CN1Cc1cccc2ccccc12
Second: O=C(O)CNC(=O)c1c(O)c2ccccc2n(Cc2ccccc2)c1=O
The viability at 10 µM of the first is higher: 85.3% for the first, 67.5% for the second.

Going from `O=C(NCc1ncc(C(F)(F)F)cc1Cl)c1ccc2c(c1)C1(CCS(=O)(=O)CC1)[C@@H](C1CC1)N2S(=O)(=O)c1ccc(F)cc1` [BAY-786] to `COc1ccccc1S(=O)(=O)Nc1ccc2c(c1)CN(C)C(=O)N2`, the viability at 10 µM falls from 61.5% to 53.9%.

Compared with `O=C(CCCCCCNC(=O)c1cnc(N(c2ccccc2)c2ccccc2)nc1)NO` [RICOLINOSTAT], `CNC(=O)c1cc(C(=O)NC2CC2)cn(Cc2ccccc2)c1=O` [GSK620] is lower in viability at 10 µM: 81.3% for the first, 60.9% for the second.

tested on: Colon cancer organoid; test: Targeting of F14 CAF-induced therapy resistance in O23 CRC organoid-stroma co-culture. Cell viability is reported with SN-38.; assay type: functional, Homo sapiens; conditions: Homo sapiens, Concentration 10 uM; read-out: Cell Viability

Going from `COc1cc(Nc2ncc3c(n2)-c2ccc(Cl)cc2C(c2c(F)cccc2OC)=NC3)ccc1C(=O)O` [ALISERTIB] to `COc1cc(Nc2ccnc3ccc(Br)cc23)cc(OC)c1OC`, the viability at 10 µM falls from 46.6% to 12.5%.

Going from `CCn1c(-c2nc3cc(C(=O)N4CCCC(N)C4)ccc3n2C)cc2ccccc21` (stereo not given) to `CN(C)C(=O)/C(C#N)=C/c1ccc(-c2nc3cnc4[nH]ccc4c3n2C2CCCCC2)o1`, the viability at 10 µM falls from 79.2% to 65.2%.

Going from `O=C1[C@H](Cc2ccc(O)cc2)N2C(=O)CCN(C(=O)NCc3ccccc3)[C@H]2CN1Cc1cccc2ccccc12` to `O=C(O)CNC(=O)c1c(O)c2ccccc2n(Cc2ccccc2)c1=O`, the viability at 10 µM falls from 103% to 95.1%.

Compared with `O=C(NCc1ncc(C(F)(F)F)cc1Cl)c1ccc2c(c1)C1(CCS(=O)(=O)CC1)[C@@H](C1CC1)N2S(=O)(=O)c1ccc(F)cc1` [BAY-786], `COc1ccccc1S(=O)(=O)Nc1ccc2c(c1)CN(C)C(=O)N2` is lower in viability at 10 µM: 106% for the first, 73.2% for the second.

First: O=C(CCCCCCNC(=O)c1cnc(N(c2ccccc2)c2ccccc2)nc1)NO [RICOLINOSTAT]
Second: CNC(=O)c1cc(C(=O)NC2CC2)cn(Cc2ccccc2)c1=O [GSK620]
The viability at 10 µM of the first is lower: 43.7% for the first, 66.8% for the second.

tested on: Colon cancer organoid; test: Targeting of F14 CAF-induced therapy resistance in O14 CRC organoid-stroma co-culture. Cell viability is reported without Gefitinib.; assay type: functional, Homo sapiens; conditions: Homo sapiens, Concentration 10 uM; read-out: Cell Viability

Compared with `COc1cc(Nc2ncc3c(n2)-c2ccc(Cl)cc2C(c2c(F)cccc2OC)=NC3)ccc1C(=O)O` [ALISERTIB], `COc1cc(Nc2ccnc3ccc(Br)cc23)cc(OC)c1OC` is higher in viability at 10 µM: 16.2% for the first, 18.2% for the second.

Compared with `CCn1c(-c2nc3cc(C(=O)N4CCCC(N)C4)ccc3n2C)cc2ccccc21` (stereo not given), `CN(C)C(=O)/C(C#N)=C/c1ccc(-c2nc3cnc4[nH]ccc4c3n2C2CCCCC2)o1` is higher in viability at 10 µM: 76.9% for the first, 117% for the second.

Compared with `O=C1[C@H](Cc2ccc(O)cc2)N2C(=O)CCN(C(=O)NCc3ccccc3)[C@H]2CN1Cc1cccc2ccccc12`, `O=C(O)CNC(=O)c1c(O)c2ccccc2n(Cc2ccccc2)c1=O` is higher in viability at 10 µM: 37.1% for the first, 103% for the second.

Compared with `O=C(NCc1ncc(C(F)(F)F)cc1Cl)c1ccc2c(c1)C1(CCS(=O)(=O)CC1)[C@@H](C1CC1)N2S(=O)(=O)c1ccc(F)cc1` [BAY-786], `COc1ccccc1S(=O)(=O)Nc1ccc2c(c1)CN(C)C(=O)N2` is lower in viability at 10 µM: 115% for the first, 101% for the second.

First: O=C(CCCCCCNC(=O)c1cnc(N(c2ccccc2)c2ccccc2)nc1)NO [RICOLINOSTAT]
Second: CNC(=O)c1cc(C(=O)NC2CC2)cn(Cc2ccccc2)c1=O [GSK620]
The viability at 10 µM of the first is higher: 141% for the first, 116% for the second.

tested on: Colon cancer organoid; test: Targeting of F14 CAF-induced therapy resistance in O23 CRC organoid-stroma co-culture. Cell viability is reported without Gefitinib.; assay type: functional, Homo sapiens; conditions: Homo sapiens, Concentration 10 uM; read-out: Cell Viability

Going from `COc1cc(Nc2ncc3c(n2)-c2ccc(Cl)cc2C(c2c(F)cccc2OC)=NC3)ccc1C(=O)O` [ALISERTIB] to `COc1cc(Nc2ccnc3ccc(Br)cc23)cc(OC)c1OC`, the viability at 10 µM rises from 32.9% to 35%.

First: CCn1c(-c2nc3cc(C(=O)N4CCCC(N)C4)ccc3n2C)cc2ccccc21 (stereo not given)
Second: CN(C)C(=O)/C(C#N)=C/c1ccc(-c2nc3cnc4[nH]ccc4c3n2C2CCCCC2)o1
The viability at 10 µM of the first is higher: 139% for the first, 96.1% for the second.

Going from `O=C1[C@H](Cc2ccc(O)cc2)N2C(=O)CCN(C(=O)NCc3ccccc3)[C@H]2CN1Cc1cccc2ccccc12` to `O=C(O)CNC(=O)c1c(O)c2ccccc2n(Cc2ccccc2)c1=O`, the viability at 10 µM rises from 125% to 167%.

Compared with `O=C(NCc1ncc(C(F)(F)F)cc1Cl)c1ccc2c(c1)C1(CCS(=O)(=O)CC1)[C@@H](C1CC1)N2S(=O)(=O)c1ccc(F)cc1` [BAY-786], `COc1ccccc1S(=O)(=O)Nc1ccc2c(c1)CN(C)C(=O)N2` is lower in viability at 10 µM: 138% for the first, 105% for the second.

Compared with `O=C(CCCCCCNC(=O)c1cnc(N(c2ccccc2)c2ccccc2)nc1)NO` [RICOLINOSTAT], `CNC(=O)c1cc(C(=O)NC2CC2)cn(Cc2ccccc2)c1=O` [GSK620] is higher in viability at 10 µM: 108% for the first, 111% for the second.

tested on: Colon cancer organoid; test: Targeting of F14 CAF-induced therapy resistance in O14 CRC organoid-stroma co-culture. Cell viability is reported with Gefitinib.; assay type: functional, Homo sapiens; conditions: Homo sapiens, Concentration 10 uM; read-out: Cell Viability

Compared with `COc1cc(Nc2ncc3c(n2)-c2ccc(Cl)cc2C(c2c(F)cccc2OC)=NC3)ccc1C(=O)O` [ALISERTIB], `COc1cc(Nc2ccnc3ccc(Br)cc23)cc(OC)c1OC` is higher in viability at 10 µM: 7.3% for the first, 8.76% for the second.

First: CCn1c(-c2nc3cc(C(=O)N4CCCC(N)C4)ccc3n2C)cc2ccccc21 (stereo not given)
Second: CN(C)C(=O)/C(C#N)=C/c1ccc(-c2nc3cnc4[nH]ccc4c3n2C2CCCCC2)o1
The viability at 10 µM of the first is higher: 65% for the first, 47.2% for the second.

First: O=C1[C@H](Cc2ccc(O)cc2)N2C(=O)CCN(C(=O)NCc3ccccc3)[C@H]2CN1Cc1cccc2ccccc12
Second: O=C(O)CNC(=O)c1c(O)c2ccccc2n(Cc2ccccc2)c1=O
The viability at 10 µM of the first is lower: 22% for the first, 80.4% for the second.

Going from `O=C(NCc1ncc(C(F)(F)F)cc1Cl)c1ccc2c(c1)C1(CCS(=O)(=O)CC1)[C@@H](C1CC1)N2S(=O)(=O)c1ccc(F)cc1` [BAY-786] to `COc1ccccc1S(=O)(=O)Nc1ccc2c(c1)CN(C)C(=O)N2`, the viability at 10 µM rises from 53% to 57.5%.

Going from `O=C(CCCCCCNC(=O)c1cnc(N(c2ccccc2)c2ccccc2)nc1)NO` [RICOLINOSTAT] to `CNC(=O)c1cc(C(=O)NC2CC2)cn(Cc2ccccc2)c1=O` [GSK620], the viability at 10 µM falls from 83% to 24.6%.
